We go through 3 compounds from patent US20240382448A1, “METHODS FOR TREATING CORONAVIRUS INFECTION” (priority 2021, published 2024).

Data set [1] relates to Calu3 (ATCC, HTB-55) cells. The settings on record: average of three replicates, (sample well/aggregated DMSOavg)*100.
The subject of data set [2] is SARS-CoV-2 (isolate USA WA1/2020). In kind it is cell-based. The settings on record: Calu3 cells, 2 h pretreatment, MOI=0.5, 48 h post-infection, compared to DMSO control.

Like-named read-outs stand apart in the source and are kept apart here.

Regarding `C[C@H]1[C@H](OC(=O)CCC(=O)O)O[C@@H]2O[C@@]3(C)CC[C@H]4[C@H](C)CC[C@@H]1[C@@]24OO3` [Artesunate], the Viability in data set [1] (0.02 μM) is 95.4; in data set [1] (0.07 μM) it was 102.6; in data set [1] (0.21 μM), 100.5; in data set [1] (0.62 μM), 97.7; in data set [1] (1.85 μM), 95.1; in data set [1] (5.56 μM) it was 92.9. Further, the Viability in data set [1] (16.67 μM) amounted to 91.1; in data set [1] (50.00 μM), 78.3. Besides, the “% Infection” value is recorded as 110.9% in data set [2] (0.02 μM); 90.0% in data set [2] (0.07 μM); 80.7% in data set [2] (0.21 μM); 44.7% in data set [2] (0.62 μM); 18.0% in data set [2] (1.85 μM); 14.7% in data set [2] (5.56 μM). In addition, the results for the “% Infection” value in data set [2] (16.67 μM) and in data set [2] (50.00 μM) were 16.1% and 4.7%, respectively.

For the compound `C[C@H]1[C@@H](O)O[C@@H]2O[C@@]3(C)CC[C@H]4[C@H](C)CC[C@@H]1[C@@]24OO3` [Dihydroartemisinin], the “% Infection” value in data set [2] (0.02 μM) worked out at 76.6%; in data set [2] (0.07 μM), 103.6%; in data set [2] (0.21 μM), 73.6%; in data set [2] (0.62 μM), 23.0%; in data set [2] (1.85 μM) it was 13.5%; in data set [2] (5.56 μM), 7.0%. The figures for the “% Infection” value in data set [2] (16.67 μM) and in data set [2] (50.00 μM) were 12.8% and 2.0%, respectively.

Turning to `COc1cc(-c2oc3cc(O)cc(O)c3c(=O)c2O)ccc1O` [Isorhamnetin], the Viability was 99.6 in data set [1] (0.02 μM); 99.6 in data set [1] (0.07 μM); 99.4 in data set [1] (0.21 μM); 98.8 in data set [1] (0.62 μM); 101.0 in data set [1] (1.85 μM); 99.8 in data set [1] (5.56 μM). For the same compound, the Viability in data set [1] (16.67 μM) was 83.7; in data set [1] (50.00 μM), 73.0. The “% Infection” value is 93.6% in data set [2] (0.02 μM); 79.5% in data set [2] (0.07 μM); 103.8% in data set [2] (0.21 μM); 60.4% in data set [2] (0.62 μM); 83.8% in data set [2] (1.85 μM); 5.3% in data set [2] (5.56 μM). The “% Infection” value in data set [2] (16.67 μM) is recorded as 7.9%.
